Test results as given in ChEMBL document CHEMBL1130300, “Antiinflammatory effects of escins Ia, Ib, IIa, and IIb from horse chestnut, the seeds of Aesculus hippocastanum L” (Bioorg Med Chem Lett, 1997).
Activity calls are given as the source filed them. The rule behind the calls is not given here.

How the values were obtained:
Assay type in all cases: functional, organism-based
Mus musculus [1] = test: Compound at 25-200 mg/kg, p.o., dose-dependently inhibited the scratching behavior induced by subcutaneous injection […]; inhibited
Mus musculus [2] = test: Compound at 50-200 mg/kg, p.o, dose-dependently inhibited the increase of vascular permeability induced by intraperitoneal injection of acetic acid in mice; inhibited
Rattus norvegicus [3] = test: Compound was tested for dose-dependent inhibition in increase of vascular permeability induced by intracutaneous injection of serotonin in rat at 50-200 mg/kg, p.o; Inhibited
Rattus norvegicus [4] = test: Compound at 200 mg/kg peroral dose in rat showed significant suppression at second phase; suppressed; design: dose 200 mg/kg
Rattus norvegicus [5] = test: Compound at 200 mg/kg, p.o., also significantly inhibited the hind paw edema induced by carrageenan at first phase in rat; inhibited; design: dose 200 mg/kg
Rattus norvegicus [6] = test: Compound at 50-200 mg/kg, p.o, dose-dependently inhibited the increase of vascular permeability induced by intracutaneous injection of histamine in rat; inhibited
Rattus norvegicus [7] = test: Compound at 200 mg/kg peroral dose in rat showed tendency to inhibit the second phase; inhibited; design: dose 200 mg/kg
Rattus norvegicus [8] = test: Compound was tested for dose-dependent inhibition in increase of vascular permeability induced by intracutaneous injection of serotonin in rat at 200 mg/kg, p.o.; NI means No inhibition; design: dose 200 mg/kg

## C/C=C(\C)C(=O)O[C@H]1[C@H](OC(C)=O)[C@@]2(CO)C(CC1(C)C)C1=CCC3[C@@]4(C)CC[C@H](O[C@@H]5O[C@H](C(=O)O)[C@@H](O[C@@H]6O[C@H](CO)[C@@H](O)[C@H](O)[C@H]6O)[C@H](O)[C@H]5O[C@@H]5O[C@H](CO)[C@@H](O)[C@H](O)[C@H]5O)[C@](C)(CO)C4CC[C@@]3(C)[C@]1(C)C[C@H]2O (stereo not given in full)
Mus musculus [1]
  Activity: inhibited
Mus musculus [2]
  Activity: inhibited
Rattus norvegicus [3]
  Activity: inhibited
Rattus norvegicus [4]
  Activity: inhibited
Rattus norvegicus [5]
  Activity: inhibited
Rattus norvegicus [6]
  Activity: inhibited

## C/C=C(\C)C(=O)O[C@H]1[C@H](OC(C)=O)[C@@]2(CO)C(CC1(C)C)C1=CCC3[C@@]4(C)CC[C@H](O[C@@H]5O[C@H](C(=O)O)[C@@H](O[C@@H]6O[C@H](CO)[C@@H](O)[C@H](O)[C@H]6O)[C@H](O)[C@H]5O[C@@H]5OC[C@@H](O)[C@H](O)[C@H]5O)[C@](C)(CO)C4CC[C@@]3(C)[C@]1(C)C[C@H]2O (stereo not given in full)
Mus musculus [1]
  Activity: inhibited
Mus musculus [2]
  Activity: inhibited
Rattus norvegicus [3]
  Activity: inhibited
Rattus norvegicus [7]
  Activity: inhibited
Rattus norvegicus [5]
  Activity: inhibited
Rattus norvegicus [6]
  Activity: inhibited

## CC1(C)CC2C3=CCC4[C@@]5(C)CC[C@H](O[C@@H]6O[C@H](C(=O)O)[C@@H](O[C@@H]7O[C@H](CO)[C@@H](O)[C@H](O)[C@H]7O)[C@H](O)[C@H]6O[C@@H]6O[C@H](CO)[C@@H](O)[C@H](O)[C@H]6O)[C@](C)(CO)C5CC[C@@]4(C)[C@]3(C)C[C@@H](O)[C@@]2(CO)[C@@H](O)[C@@H]1O (stereo not given in full)
Rattus norvegicus [8]
  Activity: inactive

## CC1(C)CC2C3=CCC4[C@@]5(C)CC[C@H](O[C@@H]6O[C@H](C(=O)O)[C@@H](O[C@@H]7O[C@H](CO)[C@@H](O)[C@H](O)[C@H]7O)[C@H](O)[C@H]6O[C@@H]6OC[C@@H](O)[C@H](O)[C@H]6O)[C@](C)(CO)C5CC[C@@]4(C)[C@]3(C)C[C@@H](O)[C@@]2(CO)[C@@H](O)[C@@H]1O (stereo not given in full)
Rattus norvegicus [8]
  Activity: inactive

## C/C=C(/C)C(=O)O[C@H]1[C@H](OC(C)=O)[C@@]2(CO)C(CC1(C)C)C1=CCC3[C@@]4(C)CC[C@H](O[C@@H]5O[C@H](C(=O)O)[C@@H](O[C@@H]6O[C@H](CO)[C@@H](O)[C@H](O)[C@H]6O)[C@H](O)[C@H]5O[C@@H]5OC[C@@H](O)[C@H](O)[C@H]5O)[C@](C)(CO)C4CC[C@@]3(C)[C@]1(C)C[C@H]2O (stereo not given in full)
Mus musculus [1]
  Activity: inhibited
Mus musculus [2]
  Activity: inhibited
Rattus norvegicus [3]
  Activity: inhibited
Rattus norvegicus [7]
  Activity: inhibited
Rattus norvegicus [5]
  Activity: inhibited
Rattus norvegicus [6]
  Activity: inhibited
